Columns and labels:
Acetylcholinesterase = Acetylcholinesterase (Homo sapiens, UniProt P22303); type: functional
[1] = target: T1, Alpha-2A adrenergic receptor (Homo sapiens, UniProt P08913)
T1 sequence (P08913 whole entry): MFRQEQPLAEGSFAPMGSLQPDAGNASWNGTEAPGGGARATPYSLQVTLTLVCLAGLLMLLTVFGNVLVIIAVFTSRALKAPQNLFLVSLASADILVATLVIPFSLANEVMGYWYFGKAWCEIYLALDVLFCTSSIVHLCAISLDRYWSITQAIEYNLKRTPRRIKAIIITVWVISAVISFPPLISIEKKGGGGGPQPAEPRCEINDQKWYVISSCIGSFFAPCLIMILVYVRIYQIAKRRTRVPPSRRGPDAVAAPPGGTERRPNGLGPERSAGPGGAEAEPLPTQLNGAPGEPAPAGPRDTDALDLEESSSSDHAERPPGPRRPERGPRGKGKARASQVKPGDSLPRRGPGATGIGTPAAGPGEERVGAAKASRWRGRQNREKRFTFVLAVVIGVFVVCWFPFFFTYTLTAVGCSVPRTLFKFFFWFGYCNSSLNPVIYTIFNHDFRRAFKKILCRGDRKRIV

[2] = target: T2, Muscarinic acetylcholine receptor M2 (Homo sapiens, UniProt P08172)
T2 sequence (P08172 whole entry): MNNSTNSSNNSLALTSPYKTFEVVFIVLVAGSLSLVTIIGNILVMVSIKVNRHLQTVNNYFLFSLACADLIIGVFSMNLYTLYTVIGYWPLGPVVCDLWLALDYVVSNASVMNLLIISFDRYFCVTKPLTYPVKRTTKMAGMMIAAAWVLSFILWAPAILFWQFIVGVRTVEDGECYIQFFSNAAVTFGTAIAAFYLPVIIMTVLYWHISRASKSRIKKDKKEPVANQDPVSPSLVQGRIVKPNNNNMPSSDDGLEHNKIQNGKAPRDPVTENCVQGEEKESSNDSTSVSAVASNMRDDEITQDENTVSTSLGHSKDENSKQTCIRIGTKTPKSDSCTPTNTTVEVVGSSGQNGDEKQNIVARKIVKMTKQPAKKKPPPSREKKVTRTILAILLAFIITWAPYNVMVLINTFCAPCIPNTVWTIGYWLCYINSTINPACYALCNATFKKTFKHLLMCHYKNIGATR

Prothrombin = Prothrombin (Homo sapiens, UniProt P00734); type: functional
Histamine H3 receptor = Histamine H3 receptor (Homo sapiens, UniProt Q9Y5N1)
[3] = target: T3, 5-hydroxytryptamine receptor 1A (Homo sapiens, UniProt P08908)
T3 sequence (P08908 whole entry): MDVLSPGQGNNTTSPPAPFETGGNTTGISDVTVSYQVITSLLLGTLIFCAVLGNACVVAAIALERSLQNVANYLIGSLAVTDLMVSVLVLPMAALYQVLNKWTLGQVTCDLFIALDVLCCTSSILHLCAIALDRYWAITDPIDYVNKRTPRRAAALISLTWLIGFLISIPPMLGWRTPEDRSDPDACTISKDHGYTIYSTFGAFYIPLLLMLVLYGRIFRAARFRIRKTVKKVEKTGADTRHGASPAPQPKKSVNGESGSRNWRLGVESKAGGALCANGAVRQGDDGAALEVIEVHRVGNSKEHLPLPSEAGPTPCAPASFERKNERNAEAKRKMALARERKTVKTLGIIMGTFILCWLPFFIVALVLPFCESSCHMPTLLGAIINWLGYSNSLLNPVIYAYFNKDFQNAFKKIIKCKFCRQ

[4] = target: 5-hydroxytryptamine receptor 2B (Homo sapiens, UniProt P41595); type: functional, cell-based
[5] = target: Voltage-gated inwardly rectifying potassium channel KCNH2 (Homo sapiens, UniProt Q12809); type: functional
[6] = target: T4, Amine oxidase [flavin-containing] A (Homo sapiens, UniProt P21397); type: functional
T4 sequence (P21397 whole entry): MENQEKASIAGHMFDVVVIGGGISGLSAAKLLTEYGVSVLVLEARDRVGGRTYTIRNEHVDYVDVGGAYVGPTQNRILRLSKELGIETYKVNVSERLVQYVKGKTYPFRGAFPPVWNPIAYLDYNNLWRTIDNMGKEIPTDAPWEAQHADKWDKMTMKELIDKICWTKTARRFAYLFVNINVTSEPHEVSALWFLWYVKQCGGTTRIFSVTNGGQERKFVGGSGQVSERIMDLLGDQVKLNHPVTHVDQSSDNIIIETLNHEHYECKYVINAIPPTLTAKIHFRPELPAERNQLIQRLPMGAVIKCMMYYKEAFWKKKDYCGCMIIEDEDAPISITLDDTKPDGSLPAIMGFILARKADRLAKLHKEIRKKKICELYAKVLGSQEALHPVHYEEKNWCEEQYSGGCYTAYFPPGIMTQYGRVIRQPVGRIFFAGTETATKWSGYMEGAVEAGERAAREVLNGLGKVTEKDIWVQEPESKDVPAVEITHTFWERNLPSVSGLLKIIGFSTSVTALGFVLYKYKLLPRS

[7] = target: cGMP-inhibited 3',5'-cyclic phosphodiesterase 3A (Homo sapiens, UniProt Q14432); type: functional
[8] = target: 3',5'-cyclic-AMP phosphodiesterase 4A (Homo sapiens, UniProt P27815); type: functional
[9] = target: Sodium-dependent dopamine transporter (Homo sapiens, UniProt Q01959)
Thromboxane A2 receptor [10] = target: T5, Thromboxane A2 receptor (Homo sapiens, UniProt P21731); type: functional, cell-based
T5 sequence (P21731 whole entry): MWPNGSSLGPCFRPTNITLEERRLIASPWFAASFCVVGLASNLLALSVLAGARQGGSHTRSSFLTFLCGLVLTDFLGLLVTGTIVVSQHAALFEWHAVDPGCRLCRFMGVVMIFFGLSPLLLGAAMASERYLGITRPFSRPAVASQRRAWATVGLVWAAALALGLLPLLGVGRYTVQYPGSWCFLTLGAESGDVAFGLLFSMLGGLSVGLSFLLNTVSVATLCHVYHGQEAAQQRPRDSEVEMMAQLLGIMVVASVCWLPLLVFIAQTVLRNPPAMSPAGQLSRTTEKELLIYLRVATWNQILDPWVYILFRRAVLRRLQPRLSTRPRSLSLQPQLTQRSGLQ

Thromboxane A2 receptor [11] = target: T5, Thromboxane A2 receptor; type: functional, cell-based; remark: listed apart in the source
Also: assay procedure not described here.

Chain of Histamine H3 receptor (Q9Y5N1 whole entry): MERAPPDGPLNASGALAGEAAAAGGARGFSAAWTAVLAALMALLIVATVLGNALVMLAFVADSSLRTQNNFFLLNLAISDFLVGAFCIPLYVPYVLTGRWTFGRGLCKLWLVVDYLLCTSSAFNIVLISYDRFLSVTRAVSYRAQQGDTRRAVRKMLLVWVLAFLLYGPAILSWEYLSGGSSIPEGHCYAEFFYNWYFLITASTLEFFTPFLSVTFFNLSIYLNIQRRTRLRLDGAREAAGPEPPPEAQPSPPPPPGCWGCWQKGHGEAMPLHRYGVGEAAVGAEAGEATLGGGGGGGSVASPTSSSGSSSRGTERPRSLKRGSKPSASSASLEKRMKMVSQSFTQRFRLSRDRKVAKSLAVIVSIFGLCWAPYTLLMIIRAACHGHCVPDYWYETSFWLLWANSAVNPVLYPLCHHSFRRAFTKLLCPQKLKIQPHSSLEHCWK
Chain of cGMP-inhibited 3',5'-cyclic phosphodiesterase 3A (Q14432 whole entry): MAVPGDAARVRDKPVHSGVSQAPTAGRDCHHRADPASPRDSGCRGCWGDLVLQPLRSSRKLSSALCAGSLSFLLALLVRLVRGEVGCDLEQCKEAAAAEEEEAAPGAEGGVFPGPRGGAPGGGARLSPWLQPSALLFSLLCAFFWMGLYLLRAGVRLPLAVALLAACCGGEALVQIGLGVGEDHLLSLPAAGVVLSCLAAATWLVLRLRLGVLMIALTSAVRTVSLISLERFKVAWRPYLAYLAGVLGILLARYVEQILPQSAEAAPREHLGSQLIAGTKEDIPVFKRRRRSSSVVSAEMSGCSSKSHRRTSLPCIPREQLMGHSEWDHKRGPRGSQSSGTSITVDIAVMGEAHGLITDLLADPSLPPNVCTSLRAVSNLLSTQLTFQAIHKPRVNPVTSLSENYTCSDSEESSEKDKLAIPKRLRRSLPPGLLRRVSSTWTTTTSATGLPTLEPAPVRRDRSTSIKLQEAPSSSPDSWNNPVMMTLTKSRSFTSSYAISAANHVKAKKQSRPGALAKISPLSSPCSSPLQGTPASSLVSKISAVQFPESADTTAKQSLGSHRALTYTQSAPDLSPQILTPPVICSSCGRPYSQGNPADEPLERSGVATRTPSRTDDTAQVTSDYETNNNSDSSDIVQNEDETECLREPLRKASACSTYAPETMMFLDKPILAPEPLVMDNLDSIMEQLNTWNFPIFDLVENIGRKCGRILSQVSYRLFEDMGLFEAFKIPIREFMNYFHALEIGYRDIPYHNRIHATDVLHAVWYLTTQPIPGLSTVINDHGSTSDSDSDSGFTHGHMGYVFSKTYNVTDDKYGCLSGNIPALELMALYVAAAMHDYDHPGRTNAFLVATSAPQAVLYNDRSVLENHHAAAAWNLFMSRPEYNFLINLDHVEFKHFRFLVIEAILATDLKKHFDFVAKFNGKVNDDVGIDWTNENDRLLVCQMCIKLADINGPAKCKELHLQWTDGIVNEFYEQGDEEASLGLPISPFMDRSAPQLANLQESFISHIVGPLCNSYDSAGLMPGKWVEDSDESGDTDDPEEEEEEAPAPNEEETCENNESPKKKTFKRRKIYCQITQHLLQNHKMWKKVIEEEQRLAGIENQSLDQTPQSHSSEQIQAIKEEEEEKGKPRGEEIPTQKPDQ
Chain of 3',5'-cyclic-AMP phosphodiesterase 4A (P27815 whole entry): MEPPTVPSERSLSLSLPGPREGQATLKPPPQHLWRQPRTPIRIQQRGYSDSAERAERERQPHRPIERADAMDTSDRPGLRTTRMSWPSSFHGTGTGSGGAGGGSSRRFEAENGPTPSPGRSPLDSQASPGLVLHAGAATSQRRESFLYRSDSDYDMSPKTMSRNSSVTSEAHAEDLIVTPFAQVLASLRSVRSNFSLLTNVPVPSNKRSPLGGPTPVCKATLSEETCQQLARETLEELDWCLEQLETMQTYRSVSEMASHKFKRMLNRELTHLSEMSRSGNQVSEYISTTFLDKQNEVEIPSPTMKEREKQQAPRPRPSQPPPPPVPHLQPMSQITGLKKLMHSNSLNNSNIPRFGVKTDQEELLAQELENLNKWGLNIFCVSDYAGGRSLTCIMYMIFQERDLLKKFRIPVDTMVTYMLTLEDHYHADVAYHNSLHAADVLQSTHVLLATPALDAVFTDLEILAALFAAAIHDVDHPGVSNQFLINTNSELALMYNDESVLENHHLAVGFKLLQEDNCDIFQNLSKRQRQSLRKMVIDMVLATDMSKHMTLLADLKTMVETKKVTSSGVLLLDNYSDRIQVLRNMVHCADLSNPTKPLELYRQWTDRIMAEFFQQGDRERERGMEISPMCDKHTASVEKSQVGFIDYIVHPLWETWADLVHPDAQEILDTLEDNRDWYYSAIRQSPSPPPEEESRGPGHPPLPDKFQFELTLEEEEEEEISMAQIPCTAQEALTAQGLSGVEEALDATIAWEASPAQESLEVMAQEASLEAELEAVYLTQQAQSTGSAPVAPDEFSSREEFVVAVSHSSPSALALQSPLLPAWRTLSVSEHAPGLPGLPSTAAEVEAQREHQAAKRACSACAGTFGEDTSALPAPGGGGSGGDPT
Chain of Acetylcholinesterase (P22303 whole entry): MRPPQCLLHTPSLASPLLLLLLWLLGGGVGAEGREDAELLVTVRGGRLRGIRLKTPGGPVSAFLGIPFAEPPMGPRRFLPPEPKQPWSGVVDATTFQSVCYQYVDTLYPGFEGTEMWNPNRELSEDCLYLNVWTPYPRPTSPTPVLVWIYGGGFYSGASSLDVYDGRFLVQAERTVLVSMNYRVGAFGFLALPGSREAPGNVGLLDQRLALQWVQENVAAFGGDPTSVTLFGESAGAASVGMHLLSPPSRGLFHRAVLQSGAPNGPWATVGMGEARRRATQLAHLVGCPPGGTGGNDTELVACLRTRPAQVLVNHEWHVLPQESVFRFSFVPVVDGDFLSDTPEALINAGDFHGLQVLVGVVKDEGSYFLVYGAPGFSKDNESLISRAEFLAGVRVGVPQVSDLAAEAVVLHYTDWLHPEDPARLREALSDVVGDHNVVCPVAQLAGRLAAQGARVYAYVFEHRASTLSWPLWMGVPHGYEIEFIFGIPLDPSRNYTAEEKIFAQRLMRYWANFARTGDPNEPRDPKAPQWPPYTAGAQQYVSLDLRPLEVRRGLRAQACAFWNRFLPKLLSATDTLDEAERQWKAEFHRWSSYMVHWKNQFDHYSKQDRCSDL
Chain of Sodium-dependent dopamine transporter (Q01959 whole entry): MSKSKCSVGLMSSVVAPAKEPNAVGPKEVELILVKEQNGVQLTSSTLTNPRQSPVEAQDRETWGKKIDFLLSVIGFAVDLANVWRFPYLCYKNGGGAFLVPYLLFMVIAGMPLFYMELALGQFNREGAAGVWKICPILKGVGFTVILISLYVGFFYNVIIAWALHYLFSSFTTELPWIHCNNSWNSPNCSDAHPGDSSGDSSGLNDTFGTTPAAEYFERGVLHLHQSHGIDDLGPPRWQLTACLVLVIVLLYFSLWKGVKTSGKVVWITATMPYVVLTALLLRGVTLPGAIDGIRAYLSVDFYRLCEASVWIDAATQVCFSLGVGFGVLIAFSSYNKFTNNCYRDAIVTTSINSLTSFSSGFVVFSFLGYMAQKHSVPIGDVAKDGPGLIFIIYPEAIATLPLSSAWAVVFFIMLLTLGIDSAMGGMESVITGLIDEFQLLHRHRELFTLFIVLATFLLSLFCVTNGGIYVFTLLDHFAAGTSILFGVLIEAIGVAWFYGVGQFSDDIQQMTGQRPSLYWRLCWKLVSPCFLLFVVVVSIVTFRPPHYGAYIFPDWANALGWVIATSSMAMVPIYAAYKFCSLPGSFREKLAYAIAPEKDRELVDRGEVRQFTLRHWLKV
Chain of 5-hydroxytryptamine receptor 2B (P41595 whole entry): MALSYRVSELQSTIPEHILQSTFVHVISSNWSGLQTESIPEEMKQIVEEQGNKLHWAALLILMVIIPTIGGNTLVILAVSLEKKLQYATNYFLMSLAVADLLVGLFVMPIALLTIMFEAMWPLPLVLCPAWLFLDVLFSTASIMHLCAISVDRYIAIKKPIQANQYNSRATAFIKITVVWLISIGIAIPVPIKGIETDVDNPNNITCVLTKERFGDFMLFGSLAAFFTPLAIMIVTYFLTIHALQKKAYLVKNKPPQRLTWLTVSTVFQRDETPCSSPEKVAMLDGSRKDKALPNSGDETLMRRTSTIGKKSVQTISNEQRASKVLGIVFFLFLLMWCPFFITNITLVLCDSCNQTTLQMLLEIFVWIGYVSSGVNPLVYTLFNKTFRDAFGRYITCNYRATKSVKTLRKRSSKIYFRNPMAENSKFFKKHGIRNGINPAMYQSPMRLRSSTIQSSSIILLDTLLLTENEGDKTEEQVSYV

Compound	AC50 (Acetylcholinesterase)	AC50 [1]	AC50 [2]	AC50 (Prothrombin)	AC50 (Histamine H3 receptor)	AC50 [3]	AC50 [4]	AC50 [5]	AC50 [6]	AC50 [7]	AC50 [8]	AC50 [9]	AC50 (Thromboxane A2 receptor [10])	AC50 (Thromboxane A2 receptor [11])
NC(=O)[C@@H]1CC[C@@H]2CN1C(=O)N2OS(=O)(=O)O [AVIBACTAM]	> 30 µM	> 30 µM	> 30 µM	> 30 µM	> 30 µM	> 30 µM	> 30 µM	> 30 µM	> 30 µM	> 30 µM	> 30 µM	> 30 µM	> 30 µM	> 30 µM
NC[C@H]1CC[C@H](C(=O)Oc2ccc(CCC(=O)O)cc2)CC1 [CETRAXATE]	> 30 µM	> 30 µM	> 30 µM	4.35 µM	> 30 µM	> 30 µM	> 30 µM	> 30 µM	> 30 µM	> 30 µM	> 30 µM	> 30 µM	> 30 µM	> 30 µM
CC(O)(CS(=O)(=O)c1ccc(F)cc1)C(=O)Nc1ccc(C#N)c(C(F)(F)F)c1 (configuration not stated) [BICALUTAMIDE]	> 30 µM	> 30 µM	> 30 µM	> 30 µM	> 30 µM	> 30 µM	> 30 µM	> 30 µM	> 30 µM	> 30 µM	> 30 µM	> 30 µM	> 10 µM	> 3 µM
COc1cccc(C(=O)CCN[C@@H](C)[C@H](O)c2ccccc2)c1 [OXYFEDRINE]	> 30 µM	5.96 µM	> 30 µM	> 30 µM	> 30 µM	0.0096 µM	> 30 µM	10 µM	> 30 µM	> 30 µM	> 30 µM	2.97 µM	> 30 µM	> 30 µM
CCCSc1nc(N[C@@H]2C[C@H]2c2ccc(F)c(F)c2)c2nnn([C@@H]3C[C@H](OCCO)[C@@H](O)[C@H]3O)c2n1 [TICAGRELOR]	> 30 µM	> 30 µM	> 30 µM	> 30 µM	> 30 µM	> 30 µM	> 30 µM	27 µM	> 30 µM	17 µM	21.3 µM	0.425 µM	> 30 µM	6.38 µM
N#Cc1ccc(Oc2ccc3c(c2)COB3O)cc1 [CRISABOROLE]	> 30 µM	> 30 µM	> 30 µM	> 30 µM	> 30 µM	> 30 µM	> 30 µM	> 30 µM	> 30 µM	14.7 µM	0.337 µM	> 30 µM	> 30 µM	> 30 µM
CC(COc1ccccc1)NC(C)C(O)c1ccc(O)cc1 (configuration not stated) [ISOXSUPRINE]	> 30 µM	0.446 µM	> 30 µM	> 30 µM	> 30 µM	0.203 µM	> 30 µM	15 µM	> 10 µM	> 30 µM	> 30 µM	0.625 µM	> 30 µM	> 30 µM
CC[N+](C)(CC)CCOC(=O)C(O)(c1ccccc1)C1CCCCC1 (configuration not stated) [OXYPHENONIUM]	> 30 µM	> 30 µM	0.003 µM	> 30 µM	> 30 µM	> 30 µM	> 30 µM	14 µM	> 30 µM	> 30 µM	> 30 µM	21.9 µM	> 30 µM	> 30 µM
C[C@@H]1C[C@H]2[C@@H]3C[C@H](F)C4=CC(=O)C=C[C@]4(C)[C@H]3[C@@H](O)C[C@]2(C)[C@@]1(O)C(=O)CO [PARAMETHASONE]	> 30 µM	> 30 µM	> 30 µM	> 30 µM	> 30 µM	> 30 µM	> 30 µM	> 30 µM	> 30 µM	> 30 µM	> 30 µM	> 30 µM	> 30 µM	> 30 µM
COc1ccc(OC)c(C(O)C(C)N)c1 (configuration not stated) [METHOXAMINE]	> 30 µM	25.9 µM	> 30 µM	> 30 µM	> 30 µM	> 30 µM	> 30 µM	> 30 µM	> 30 µM	> 30 µM	> 30 µM	> 30 µM	> 30 µM	> 30 µM
CC(=O)O[C@]1(C(C)=O)CC[C@H]2[C@@H]3C=C(Cl)C4=CC(=O)[C@@H]5C[C@@H]5[C@]4(C)[C@H]3CC[C@@]21C [CYPROTERONE ACETATE]	> 30 µM	> 30 µM	9.17 µM	> 30 µM	> 30 µM	> 30 µM	> 30 µM	> 30 µM	> 30 µM	> 30 µM	> 30 µM	> 30 µM	> 30 µM	> 3 µM
Clc1ccc(C(Cn2ccnc2)OCc2csc3c(Cl)cccc23)c(Cl)c1 (configuration not stated) [SERTACONAZOLE]	> 30 µM	3.8 µM	6.26 µM	> 30 µM	23.3 µM	12.4 µM	> 30 µM	1.7 µM	> 30 µM	> 30 µM	17.7 µM	1.88 µM	> 30 µM	14.5 µM
CC1(CCN2CCCCC2)C(=O)CCc2ccccc21 (configuration not stated) [NEPINALONE]	> 30 µM	18.3 µM	7.14 µM	> 30 µM	> 30 µM	> 30 µM	> 30 µM	> 30 µM	> 30 µM	> 30 µM	> 30 µM	> 30 µM	> 30 µM	> 30 µM

— ChEMBL document CHEMBL5291721, “A preclinical secondary pharmacology resource illuminates target-adverse drug reaction associations of marketed drugs” (Nat Commun, 2023)
